One assay deals with T1, DppA (Escherichia coli, UniProt P23847).
T1 construct: soluble periplasmic protein, His-tagged, Ni-NTA with guanidine wash to remove endogenous peptides; expressed in E. coli
T1 sequence (P23847 29-535): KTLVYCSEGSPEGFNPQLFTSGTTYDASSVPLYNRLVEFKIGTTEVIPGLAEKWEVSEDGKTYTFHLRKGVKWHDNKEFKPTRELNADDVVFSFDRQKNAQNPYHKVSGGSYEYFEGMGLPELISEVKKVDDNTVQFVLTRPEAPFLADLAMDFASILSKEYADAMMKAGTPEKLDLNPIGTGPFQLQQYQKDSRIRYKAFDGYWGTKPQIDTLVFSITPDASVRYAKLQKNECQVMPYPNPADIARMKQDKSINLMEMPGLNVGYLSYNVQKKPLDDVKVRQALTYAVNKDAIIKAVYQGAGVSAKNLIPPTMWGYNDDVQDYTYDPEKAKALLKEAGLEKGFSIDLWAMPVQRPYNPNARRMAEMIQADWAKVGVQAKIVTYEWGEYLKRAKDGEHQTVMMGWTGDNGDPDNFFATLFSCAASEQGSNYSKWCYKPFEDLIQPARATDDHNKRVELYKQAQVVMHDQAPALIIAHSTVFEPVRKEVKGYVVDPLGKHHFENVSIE
Description: isothermal titration calorimetry. The class given is binding. To be noted: read-out: affinity.

The test system of assay [1] is T2, DppABCDF full transporter.
T2 construct: gene dppD; heteropentamer; structure: DppA C-terminal His-tag and Strep tag, GDN; ATPase: DppBCDF in MSP1E3D1/POPG nanodiscs plus separately purified DppA; Dipeptide transport system permease protein DppB; Dipeptide transport system permease protein DppC
T2 sequence (P0AAG0 whole entry, one chain of several): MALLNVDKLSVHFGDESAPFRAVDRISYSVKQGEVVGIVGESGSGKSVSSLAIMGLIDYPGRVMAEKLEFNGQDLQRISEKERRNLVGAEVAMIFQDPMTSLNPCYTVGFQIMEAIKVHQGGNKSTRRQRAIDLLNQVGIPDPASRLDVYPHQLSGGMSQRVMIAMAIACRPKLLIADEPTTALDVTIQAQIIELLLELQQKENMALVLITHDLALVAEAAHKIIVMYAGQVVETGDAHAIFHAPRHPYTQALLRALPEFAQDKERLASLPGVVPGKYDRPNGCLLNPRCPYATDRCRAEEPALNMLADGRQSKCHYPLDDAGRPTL
T2 sequence (P0AEF8 whole entry, one chain of several, further chain): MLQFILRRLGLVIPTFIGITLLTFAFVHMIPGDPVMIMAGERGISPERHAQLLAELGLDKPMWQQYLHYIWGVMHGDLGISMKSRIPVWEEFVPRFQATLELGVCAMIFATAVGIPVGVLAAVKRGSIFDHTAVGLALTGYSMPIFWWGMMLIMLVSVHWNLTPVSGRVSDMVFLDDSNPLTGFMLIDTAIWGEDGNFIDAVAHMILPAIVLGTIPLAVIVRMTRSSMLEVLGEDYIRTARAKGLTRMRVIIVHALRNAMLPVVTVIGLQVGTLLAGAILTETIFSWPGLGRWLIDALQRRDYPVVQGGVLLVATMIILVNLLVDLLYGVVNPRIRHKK
T2 sequence (P0AEG1 whole entry, one chain of several, further chain): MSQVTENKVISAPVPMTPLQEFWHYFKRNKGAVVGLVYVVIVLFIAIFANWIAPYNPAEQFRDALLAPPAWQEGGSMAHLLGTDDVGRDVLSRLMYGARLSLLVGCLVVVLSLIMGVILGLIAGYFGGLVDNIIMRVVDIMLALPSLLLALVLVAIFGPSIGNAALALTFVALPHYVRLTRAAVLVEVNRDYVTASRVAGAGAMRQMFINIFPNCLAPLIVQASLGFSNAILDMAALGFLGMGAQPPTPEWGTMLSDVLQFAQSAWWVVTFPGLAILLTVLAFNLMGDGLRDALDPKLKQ
T2 sequence (P37313 whole entry, one chain of several, further chain): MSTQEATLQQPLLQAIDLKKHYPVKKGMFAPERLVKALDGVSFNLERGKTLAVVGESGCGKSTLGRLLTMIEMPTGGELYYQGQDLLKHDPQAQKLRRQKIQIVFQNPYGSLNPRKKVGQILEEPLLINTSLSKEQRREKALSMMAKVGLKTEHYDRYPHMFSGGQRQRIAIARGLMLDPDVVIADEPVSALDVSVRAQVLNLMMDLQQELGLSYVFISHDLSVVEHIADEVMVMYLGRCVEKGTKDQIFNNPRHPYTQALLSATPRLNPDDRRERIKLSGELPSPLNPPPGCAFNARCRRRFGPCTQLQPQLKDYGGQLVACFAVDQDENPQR
In words: malachite green phosphate ATPase assay, nanodiscs. The assay is classed as biochemical, Escherichia coli. Particulars: DppA added, Mg2+, pH 7.5, 37 °C; with or without Ala-Ala.

For assay [2], the target named is T3, DppABCDF full transporter (Escherichia coli, UniProt P0AAG0+P37313, P0AAG0:E179Q/P37313:E187Q).
T3 construct: gene dppD; heteropentamer; structure: DppA C-terminal His-tag and Strep tag, GDN; ATPase: DppBCDF in MSP1E3D1/POPG nanodiscs plus separately purified DppA; Dipeptide transport system permease protein DppB; Dipeptide transport system permease protein DppC
T3 sequence (P0AAG0 whole entry E179Q, one chain of several): as the sequence (P0AAG0 whole entry, one chain of several) above, with E179Q counted along it
T3 sequence (P37313 whole entry E187Q, one chain of several): as the sequence (P37313 whole entry, one chain of several, further chain) above, with E187Q counted along it
T3 sequence (P0AEF8 whole entry partner, one chain of several): as the sequence (P0AEF8 whole entry, one chain of several, further chain) above
T3 sequence (P0AEG1 whole entry partner, one chain of several): as the sequence (P0AEG1 whole entry, one chain of several, further chain) above
Description: cryo-EM structure of the complex ([…] Å). The class given is binding. Particulars: 2 mM ATPγS, 2 mM MgCl2, on ice; outward-facing; two molecules at the DppD-DppF interface.

For assay [3], the target named is T4, DppBCDF translocator (nucleotide and cluster site of DppF) (Escherichia coli, UniProt P37313).
T4 construct: heterotetramer, C-terminal Strep-tag II, expressed in E. coli, DDM then GDN detergent; with Dipeptide transport system permease protein DppB; Dipeptide transport system permease protein DppC
T4 sequence (P37313 whole entry): as the sequence (P37313 whole entry, one chain of several, further chain) above
T4 sequence (P0AEF8 whole entry partner): as the sequence (P0AEF8 whole entry, one chain of several, further chain) above
T4 sequence (P0AEG1 whole entry partner): as the sequence (P0AEG1 whole entry, one chain of several, further chain) above
T4 sequence (P0AAG0 whole entry partner): as the sequence (P0AAG0 whole entry, one chain of several) above
Description: cryo-EM structure of the complex ([…] Å). To be noted: cluster in DppF, ligands Cys293, Cys299, Cys306, Cys323; 2 mM DTT. The class given is binding.

The target of assay [4] is T5, DppBCDF translocator (cluster site of DppD) (Escherichia coli, UniProt P0AAG0).
T5 construct: same complex as P2: heterotetramer, C-terminal Strep-tag II, expressed in E. coli, GDN detergent; with Dipeptide transport system permease protein DppB; Dipeptide transport system permease protein DppC
T5 sequence (P0AAG0 whole entry): as the sequence (P0AAG0 whole entry, one chain of several) above
T5 sequence (P0AEF8 whole entry partner): as the sequence (P0AEF8 whole entry, one chain of several, further chain) above
T5 sequence (P0AEG1 whole entry partner): as the sequence (P0AEG1 whole entry, one chain of several, further chain) above
T5 sequence (P37313 whole entry partner): as the sequence (P37313 whole entry, one chain of several, further chain) above
Description: cryo-EM structure of the complex ([…] Å). Particulars: cluster in DppD, ligands Cys284, Cys290, Cys297, Cys315; 2 mM DTT. The assay is classed as binding.

From paper PMC12136057, “Structural characterization of the ABC transporter DppABCDF in Escherichia coli reveals insights into dipeptide acquisition” (PLOS Biology, 2025) come the findings set out here.

The structures appear in SMILES notation. Peptide text beside a SMILES is read from it.

In the case of `C[C@H](N)C(=O)N[C@@H](C)C(=O)O` [AA, Ala-Ala] (H-Ala-Ala-OH), at DppA, the Kd is roughly 13.9 nM.

For `Nc1ncnc2c1ncn2[C@@H]1O[C@H](COP(=O)(O)OP(=O)(O)OP(=O)(O)O)[C@@H](O)[C@H]1O` [ATP], the ATPase activity result in assay [1] is “high ATPase activity is observed when DppA was supplied in the assay”.

With `Nc1ncnc2c1ncn2[C@@H]1O[C@H](COP(=O)(O)OP(=O)(O)OP(O)(O)=S)[C@@H](O)[C@H]1O` [ATPγS], in assay [2], the “cryo-EM structure of the complex (2.73 Å)” value is listed as “two ATPγS molecules bound at the interface of the two NBDs”.

With `CC(C)C[C@H](NC(=O)CN)C(=O)O` [GL, Gly-Leu], on DppA, the Kd was roughly 2200 nM.

As for `[S]12[Fe]3[S]4[Fe]1[S]1[Fe]2[S]3[Fe]41` [[4Fe-4S] cluster], the “cryo-EM structure of the complex (3.2 Å)” value in assay [3] is “the [4Fe-4S] cluster in DppF is coordinated by Cys293, Cys299, Cys306 and Cys323”; in assay [4], “The [4Fe-4S] cluster in DppD is coordinated by Cys284, Cys290, Cys297 and Cys315”.
